# Assay results as given in US20190255091A1, “RNAi AGENTS FOR [sequence] B VIRUS INFECTION” (priority 2016, published 2019).
# Assays:
# [1] = tested on: Hepatitis B Virus (HBV); assay: Serum HBeAg levels in pHBV model mice (ELISA); assay type: in vivo; conditions: single s.c. injection day 1, Example 7; for Average HBeAg levels normalized to pre-treatment and PBS control: pooled serum
# Description: (§1) Six to eight-week-old female NOD.CB17-Prkdscid/NcrCrl (NOD-SCID) mice were transiently transfected in vivo with MC-HBV1.3 by hydrodynamic tail vein injection (Yang P L et al. “Hydrodynamic injection of viral DNA: a mouse model of acute hepatitis B virus infection,” PNAS USA 2002 Vol. 99: p. 13825-13830), administered 30 to 45 days prior to administration of an HBV RNAi agent or control. MC-HBV1.3 is a plasmid-derived minicircle that contains the same terminally redundant human hepatitis B virus sequence HBV1.3 as in plasmid pHBV1.3 and in the HBV1.3.32 transgenic mice (GenBank accession #V01460) (Guidotti L G et al., “High-level hepatitis B virus replication in transgenic mice,” J Virol 1995 Vol. 69, p 6158-6169.). 5 or 10 μg MC-HBV1.3 in Ringer's Solution in a total volume of 10% of the animal's body weight was injected into mice via tail vein to create pHBV model of chronic HBV infection. The solution was injected through a 27-gauge needle in 5-7 seconds as previously described (Zhang G et al., “High levels of foreign gene expression in hepatocytes after tail vein injection of naked plasmid DNA.” Human Gene Therapy 1999 Vol. 10, p 1735-1737.). At pre-dose (either day 1 pre-dose, day −1, or day −2), Hepatitis B surface antigen (HBsAg) HBsAg expression levels in serum were measured by ELISA and the mice were grouped according to average HBsAg expression levels.
# (§2) HBV expression levels were normalized to pre-administration expression levels and to control mice injected with phosphate buffered saline (“PBS”).
# HBeAg analysis was performed with the HBeAg enzyme linked immunosorbent assay (ELISA) as described by the manufacturer (DiaSorin) using serum diluted 4- to 20-fold in 5% nonfat dry milk. The amount of antigen was determined in the linear range of the assay and quantitated against HBeAg protein standards (Fitzgerald Industries International, catalog #30-AH18, Acton, Mass.).
# HBeAg expression for each animal was normalized to the control group of mice injected with PBS in order to account for the non-treatment related decline in expression of MC-HBV1.3. For evaluation of HBeAg in serum, HBeAg is analyzed from pooled group or subgroup serum samples. First, the HBeAg level for each pooled group or subgroup was divided by the pre-treatment level of expression in the same group or subgroup in order to determine the ratio of expression “normalized to pre-treatment”. Expression at a specific time point was then normalized to the control group by dividing the “normalized to pre-treatment” ratio for a group or subgroup by the average “normalized to pre-treatment” ratio of all samples from the normal PBS control group.
# [2] = tested on: Hepatitis B Virus (HBV); assay: Serum HBV DNA levels in pHBV model mice (qPCR); assay type: in vivo; conditions: single s.c. injection day 1, Example 7
# Description: as §1, §2
# Equal volumes of serum from mice in a group or subgroup were pooled to a final volume of 100 μL. DNA was isolated from serum samples using the QIAamp MinElute Virus Spin Kit (Qiagen, Valencia, Calif.) following the manufacturer's instructions. Sterile 0.9% saline was added to each sample to a final volume of 200 μL. Serum samples were added to tubes containing buffer and protease. Carrier RNA was added to aid in the isolation of small amounts of DNA. […] After incubating 15 min at 56° C., nucleic acids were precipitated from the lysates with ethanol and the entire solution applied to a column. After washing, the samples were eluted into a volume of 50 μL Buffer AVE.
# The number of copies of HBV genomes in DNA isolated from the pHBV mouse model serum was determined by qPCR. Plasmid pSEAP-HBV353-777, encoding a short segment of the HBV genome within the S gene (bases 353-777 of GenBank accession #V01460), was used to create a six log standard curve. Samples with recovery of DNA below 2 standard deviations from the average, based on detection of pHCR/UbC-SEAP were omitted. TaqMan chemistry-based primers and probes with fluor/ZEN/IBFQ are utilized.
# qPCR assays were performed on a 7500 Fast or StepOne Plus Real-Time PCR system (Life Technologies). For evaluation of HBV DNA in serum, DNA was isolated from singlet or duplicate purification steps from pooled group serum samples. Quantitations of HBV DNA and recovery control plasmid were determined by qPCR reactions performed in triplicate. The probes to quantitate HBV and pHCR/UbC-SEAP were included in each reaction.
substance,measurement,setting,value
AD04776: HBV RNAi agent duplex AM05850-AS/AM06150-SS (antisense UACCAAUUUAUGCCUACAGCC; sense GGCUGUAGGCAUAAAUUGGUA; chemistry not fully specified),Average HBeAg fold knockdown normalized to pre-treatment and PBS control,"[1]; Day 8, 1.0 mg/kg",2.6 Fold KD
same,Average HBeAg levels normalized to pre-treatment and PBS control,"[1]; Day 8, 1.0 mg/kg",0.381
same,Average HBeAg fold knockdown normalized to pre-treatment and PBS control,"[1]; Day 8, 2.0 mg/kg",3.6 Fold KD
same,Average HBeAg levels normalized to pre-treatment and PBS control,"[1]; Day 8, 2.0 mg/kg",0.275
same,Average HBeAg fold knockdown normalized to pre-treatment and PBS control,"[1]; Day 8, 4.0 mg/kg",5.2 Fold KD
same,Average HBeAg levels normalized to pre-treatment and PBS control,"[1]; Day 8, 4.0 mg/kg",0.193
same,Average HBeAg fold knockdown normalized to pre-treatment and PBS control,"[1]; Day 15, 1.0 mg/kg",2.7 Fold KD
same,Average HBeAg levels normalized to pre-treatment and PBS control,"[1]; Day 15, 1.0 mg/kg",0.368
same,Average HBeAg fold knockdown normalized to pre-treatment and PBS control,"[1]; Day 15, 2.0 mg/kg",3.9 Fold KD
same,Average HBeAg levels normalized to pre-treatment and PBS control,"[1]; Day 15, 2.0 mg/kg",0.255
same,Average HBeAg fold knockdown normalized to pre-treatment and PBS control,"[1]; Day 15, 4.0 mg/kg",4.7 Fold KD
same,Average HBeAg levels normalized to pre-treatment and PBS control,"[1]; Day 15, 4.0 mg/kg",0.213
same,Average HBeAg fold knockdown normalized to pre-treatment and PBS control,"[1]; Day 22, 1.0 mg/kg",2.8 Fold KD
same,Average HBeAg levels normalized to pre-treatment and PBS control,"[1]; Day 22, 1.0 mg/kg",0.355
same,Average HBeAg fold knockdown normalized to pre-treatment and PBS control,"[1]; Day 22, 2.0 mg/kg",2.7 Fold KD
same,Average HBeAg levels normalized to pre-treatment and PBS control,"[1]; Day 22, 2.0 mg/kg",0.370
same,Average HBeAg fold knockdown normalized to pre-treatment and PBS control,"[1]; Day 22, 4.0 mg/kg",3.8 Fold KD
same,Average HBeAg levels normalized to pre-treatment and PBS control,"[1]; Day 22, 4.0 mg/kg",0.260
same,Average HBeAg fold knockdown normalized to pre-treatment and PBS control,"[1]; Day 29, 1.0 mg/kg",1.8 Fold KD
same,Average HBeAg levels normalized to pre-treatment and PBS control,"[1]; Day 29, 1.0 mg/kg",0.564
same,Average HBeAg fold knockdown normalized to pre-treatment and PBS control,"[1]; Day 29, 2.0 mg/kg",2.0 Fold KD
same,Average HBeAg levels normalized to pre-treatment and PBS control,"[1]; Day 29, 2.0 mg/kg",0.495
same,Average HBeAg fold knockdown normalized to pre-treatment and PBS control,"[1]; Day 29, 4.0 mg/kg",3.3 Fold KD
same,Average HBeAg levels normalized to pre-treatment and PBS control,"[1]; Day 29, 4.0 mg/kg",0.307
same,Average HBeAg fold knockdown normalized to pre-treatment and PBS control,"[1]; Day 36, 1.0 mg/kg",2.1 Fold KD
same,Average HBeAg levels normalized to pre-treatment and PBS control,"[1]; Day 36, 1.0 mg/kg",0.483
same,Average HBeAg fold knockdown normalized to pre-treatment and PBS control,"[1]; Day 36, 2.0 mg/kg",2.2 Fold KD
same,Average HBeAg levels normalized to pre-treatment and PBS control,"[1]; Day 36, 2.0 mg/kg",0.449
same,Average HBeAg fold knockdown normalized to pre-treatment and PBS control,"[1]; Day 36, 4.0 mg/kg",2.2 Fold KD
same,Average HBeAg levels normalized to pre-treatment and PBS control,"[1]; Day 36, 4.0 mg/kg",0.464
same,Average Serum HBV DNA levels normalized to pre-treatment and PBS control,"[2]; Day 8, 1.0 mg/kg",0.601 ± 0.388
same,Average Serum HBV DNA levels normalized to pre-treatment and PBS control,"[2]; Day 8, 2.0 mg/kg",0.363 ± 0.128
same,Average Serum HBV DNA levels normalized to pre-treatment and PBS control,"[2]; Day 8, 4.0 mg/kg",0.224 ± 0.150
same,Average Serum HBV DNA levels normalized to pre-treatment and PBS control,"[2]; Day 15, 1.0 mg/kg",0.319 ± 0.125
same,Average Serum HBV DNA levels normalized to pre-treatment and PBS control,"[2]; Day 15, 2.0 mg/kg",0.374 ± 0.197
same,Average Serum HBV DNA levels normalized to pre-treatment and PBS control,"[2]; Day 15, 4.0 mg/kg",0.263 ± 0.185
same,Average Serum HBV DNA levels normalized to pre-treatment and PBS control,"[2]; Day 22, 1.0 mg/kg",0.279 ± 0.138
same,Average Serum HBV DNA levels normalized to pre-treatment and PBS control,"[2]; Day 22, 2.0 mg/kg",0.275 ± 0.146
same,Average Serum HBV DNA levels normalized to pre-treatment and PBS control,"[2]; Day 22, 4.0 mg/kg",0.335 ± 0.204
same,Average Serum HBV DNA levels normalized to pre-treatment and PBS control,"[2]; Day 29, 1.0 mg/kg",0.506 ± 0.525
same,Average Serum HBV DNA levels normalized to pre-treatment and PBS control,"[2]; Day 29, 2.0 mg/kg",0.385 ± 0.141
same,Average Serum HBV DNA levels normalized to pre-treatment and PBS control,"[2]; Day 29, 4.0 mg/kg",0.449 ± 0.108
same,Average Serum HBV DNA levels normalized to pre-treatment and PBS control,"[2]; Day 36, 1.0 mg/kg",0.444 ± 0.407
same,Average Serum HBV DNA levels normalized to pre-treatment and PBS control,"[2]; Day 36, 2.0 mg/kg",0.721 ± 0.043
same,Average Serum HBV DNA levels normalized to pre-treatment and PBS control,"[2]; Day 36, 4.0 mg/kg",0.603 ± 0.068
